# According to patent US20110098442A1, “PEPTIDES AND PEPTIDE DERIVATIVES AS WELL AS PHARMACEUTICAL COMPOSITIONS CONTAINING THE SAME” (priority 2006, published 2011):
# Groups on a side chain read outwards from the residue. No end group written: not given here.
# Tested on: mouse-adapted Dengue virus (DEN-2, strain P23085)
# Assay: Dengue virus infection in mice, mortality/survival
# Assay type: in vivo, BALB/c mice
# Conditions: 4.8 mg/kg/day intramuscular once a day for 5 days, starting on day 3 after infection, end of treatment period (day 10)
# Method: A further possibility for establishing the biological effect in vivo is the reduction or complete suppression of mortality because of an infection with haemolytic viruses or bacteria. For this purpose, mice are, as described in Example 8, for instance infected with a dose of Dengue viruses, wherein 50% of the animals die within a period of 5-20 days after infection. The inventive compounds bring about a reduction of this mortality at a dose ranging from 0.001 to 500 mg/kg body weight, preferably at a dose ranging from […] body weight.
# The biological effect of the compound of Example 3 was established in a model of Dengue virus infection in mice. 5-week-old male BALB/c mice were divided into 2 groups. All animals were infected subcutaneously with a mouse-adapted Dengue virus (DEN-2, strain P23085 at a dose of 1-2 LD50. 15 mice received 0.1 ml of 0.8% saline as intramuscular injection (control). The treated animals received 4.8 mg/kg/day of the agent of Example 3 as an intramuscular injection (diluted in 0.1 ml of 0.8% saline) once a day for 5 days, starting on day 3 after the virus infection.
# At the end of the treatment period (day 10) the survival rates were compared.
substance,measurement,setting,value
Gly-His-Arg-Pro-Leu-Asp-Lys-Lys-Arg-Glu-Glu-Ala-Pro-Ser-Leu-Arg-Pro-Ala-Pro-Pro-Pro-Ile-Ser-Gly-Gly-Gly-Tyr-Arg-Cys-(S-succinimido-PEG20K)-amide (GHRPLDKKREEAPSLRPAPPPISGGGYRC([succinimido-PEG 20 kDa])-NH2) [Example 3],Mortality (dead animals/animals in group),infection dose 1-2 LD50,0/10
same,Mortality Percentage,p < 0.05 vs control,0%
